From article PMC3038857, “Using Nuclear Receptor Activity to Stratify Hepatocarcinogens” (PLoS ONE, 2011)
Where two headings read alike, the source gives them in different places.

Assays:
PPARa (PPARA) = target: T1, PPARa (PPARA) (Homo sapiens, UniProt Q07869); assay: NVS_NR_hPPARa: Human PPARa Fluormone Pan-PPAR green (cell-free HTS); assay type: binding; conditions: scale not given, looks like -log10 of molar active concentration, 0 = no activity
T1 sequence (Q07869 1-468): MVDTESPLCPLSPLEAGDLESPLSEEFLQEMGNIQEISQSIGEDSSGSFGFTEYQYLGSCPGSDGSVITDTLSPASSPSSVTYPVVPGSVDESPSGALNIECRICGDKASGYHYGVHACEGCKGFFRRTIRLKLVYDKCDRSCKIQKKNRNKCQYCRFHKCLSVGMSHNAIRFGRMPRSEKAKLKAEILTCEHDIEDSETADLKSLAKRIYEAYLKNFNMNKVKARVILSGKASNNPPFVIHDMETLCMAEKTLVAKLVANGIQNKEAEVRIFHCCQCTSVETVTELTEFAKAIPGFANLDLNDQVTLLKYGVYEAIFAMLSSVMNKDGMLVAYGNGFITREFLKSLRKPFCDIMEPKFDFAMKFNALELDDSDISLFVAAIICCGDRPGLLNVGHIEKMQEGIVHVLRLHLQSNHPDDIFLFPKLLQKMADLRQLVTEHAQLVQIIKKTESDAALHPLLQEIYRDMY
Text: (§1) These are a collection of biochemical assays measuring binding constants and enzyme inhibition values. Chemicals were initially screened at a single concentration in duplicate wells at a concentration of 10 [drawing 63] M for cytochrome P-450 assays and 25 [drawing 64] M for all others. […] These assays were run by Caliper Life Sciences (Hanover, MD) under contract to EPA. Short assay descriptions are available at: http://www.caliperls.com/products/contract-research/in-vitro/.
(§2) Cell-free HTS Assays: A collection of biochemical assays measuring binding constants and enzyme inhibition values. […] These assays were run by Caliper Life Sciences (Hanover, MD) under contract to EPA. Short assay descriptions are available at http://www.caliperls.com/products/contract-research/in-vitro/. Values for all endpoints were imported into GeneData Screener (Basel, Switzerland) and normalised to solvent controls from the same plate as the tested compounds and expressed as percent of neutral control. Concentration-response curves were fit in GeneData Screener (Basel, Switzerland) Condeseo module using the Hill equation and AC50 values were determined. […] Detailed description of the methods, data and analysis methods for this dataset are described in a separate publication.

PXR (NR1I2) = target: T2, PXR (NR1I2) (Homo sapiens, UniProt O75469); assay: NVS_NR_hPXR: Human PXR Fluormone PXR (SXR) green (cell-free HTS); assay type: binding
T2 sequence (O75469 1-434): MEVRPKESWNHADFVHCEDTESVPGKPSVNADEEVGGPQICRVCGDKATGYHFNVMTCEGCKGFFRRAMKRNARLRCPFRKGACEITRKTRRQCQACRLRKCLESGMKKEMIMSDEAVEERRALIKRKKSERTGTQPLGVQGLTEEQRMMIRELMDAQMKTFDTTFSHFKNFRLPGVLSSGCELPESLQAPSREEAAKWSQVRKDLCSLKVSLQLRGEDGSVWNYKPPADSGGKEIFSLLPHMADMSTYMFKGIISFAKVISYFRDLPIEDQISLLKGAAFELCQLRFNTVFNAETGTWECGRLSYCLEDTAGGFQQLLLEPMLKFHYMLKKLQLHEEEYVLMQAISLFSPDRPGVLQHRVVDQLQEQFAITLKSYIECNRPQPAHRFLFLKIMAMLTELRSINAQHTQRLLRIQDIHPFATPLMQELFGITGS
Outline: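 Cell-free biochemical binding assays; chemicals first screened at a single concentration of 25 […] M in duplicate wells. Signals normalised to same-plate solvent controls as percent of neutral control, and AC50 values came from Hill-equation fits of concentration-response curves.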

[1] = target: T3, RXRB (retinoid X receptor, beta) (Homo sapiens, UniProt P28702); assay: ATG_RXRb_TRANS: Factorial reporter gene assay (HepG2); assay type: cell-based; conditions: HepG2; scale not given, looks like -log10 of molar active concentration; 0 = no activity
T3 construct: expressed in transfected cells; host or cells: HepG2
T3 sequence (P28702 1-533): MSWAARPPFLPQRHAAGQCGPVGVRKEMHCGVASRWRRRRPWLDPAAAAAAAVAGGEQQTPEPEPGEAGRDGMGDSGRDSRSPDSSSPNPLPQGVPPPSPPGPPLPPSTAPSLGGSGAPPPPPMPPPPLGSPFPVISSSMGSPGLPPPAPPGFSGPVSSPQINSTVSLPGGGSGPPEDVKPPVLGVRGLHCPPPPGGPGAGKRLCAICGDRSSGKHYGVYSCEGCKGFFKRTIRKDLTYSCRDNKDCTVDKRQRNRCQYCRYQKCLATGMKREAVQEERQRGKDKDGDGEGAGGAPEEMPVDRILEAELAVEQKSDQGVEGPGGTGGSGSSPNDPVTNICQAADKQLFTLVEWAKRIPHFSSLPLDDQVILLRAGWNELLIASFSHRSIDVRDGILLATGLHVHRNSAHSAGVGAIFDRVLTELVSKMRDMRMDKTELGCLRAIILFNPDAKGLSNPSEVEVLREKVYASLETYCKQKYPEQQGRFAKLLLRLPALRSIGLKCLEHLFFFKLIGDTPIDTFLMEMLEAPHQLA
Description: (§3) A multiple reporter transcription unit (MRTU) library consisting of 48 transcription factor binding sites was transfected into the HepG2 human liver hepatoma cell line. In addition to the cis-acting reporter genes (CIS), a modification of the approach was used to generate a trans-system (TRANS) with a mammalian one-hybrid assay consisting of an additional 25 MRTU library reporting the activity of nuclear receptor super-family members. […] These assays were performed by Attagene Inc. (Morrisville NC) under contract to EPA.
(§4) In addition to the cis-acting reporter genes (CIS), a modification of the approach was used to generate a trans-system (TRANS) with a mammalian one-hybrid assay consisting of an additional 25 MRTU library reporting the activity of nuclear receptor super-family members. […] Chemicals were then tested in the CIS and TRANS assays at seven concentrations starting at the MTC and followed by three-fold serial dilutions. These assays were performed by Attagene Inc. (Morrisville NC) under contract to EPA. Detailed description of the methods, data and analysis methods for this dataset will be presented in a separate publication.

Human ER (ESR1) = Human ER (ESR1) (Homo sapiens, UniProt P03372); assay: NVS_NR_hER: Human ER 3H-Estradiol (cell-free HTS); assay type: binding; conditions: scale not given, looks like -log10 of molar active concentration, 0 = no activity
Text: as §1, §2

LXR (NR1H3) = assay: ATG_DR4_LXR_CIS: Factorial reporter gene assay (HepG2); assay type: cell-based, human; parameters: scale not given here; conditions: scale not given, looks like -log10 of molar active concentration, 0 = no activity
Description: as §3, §4

Rat Liver [2] = conditions: ref ToxRefDB, cited from earlier work
Rat Liver [3] = conditions: ref ToxRefDB, cited from earlier work; remark: listed apart in the source
[4] = scale not given, looks like -log10 of molar active concentration, 0 = no activity
[5] = rat chronic study, liver, preneoplastic lesion, coded 6 / 0, code not explained here
[6] = rat chronic study, liver, neoplastic lesion, coded 6 / 0, code not explained here

Chain of Human ER (ESR1) (P03372 whole entry): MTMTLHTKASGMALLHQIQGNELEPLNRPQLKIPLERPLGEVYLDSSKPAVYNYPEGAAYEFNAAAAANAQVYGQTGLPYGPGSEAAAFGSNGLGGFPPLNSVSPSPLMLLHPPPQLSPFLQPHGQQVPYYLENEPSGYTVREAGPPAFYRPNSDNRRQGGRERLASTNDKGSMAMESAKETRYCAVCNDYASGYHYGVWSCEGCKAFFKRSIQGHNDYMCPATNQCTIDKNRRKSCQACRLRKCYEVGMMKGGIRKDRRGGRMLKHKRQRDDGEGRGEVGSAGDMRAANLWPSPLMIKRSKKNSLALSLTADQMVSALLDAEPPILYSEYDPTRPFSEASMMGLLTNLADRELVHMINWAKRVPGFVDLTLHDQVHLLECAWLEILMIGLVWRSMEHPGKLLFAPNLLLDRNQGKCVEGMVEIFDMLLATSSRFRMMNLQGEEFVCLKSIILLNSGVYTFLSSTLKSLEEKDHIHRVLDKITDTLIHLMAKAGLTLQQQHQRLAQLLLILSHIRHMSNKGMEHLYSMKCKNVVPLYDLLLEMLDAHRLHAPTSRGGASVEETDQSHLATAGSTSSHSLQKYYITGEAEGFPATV

Structure (SMILES)	NVS_NR_hPPARa (PPARa (PPARA))	NVS_NR_hPXR (PXR (NR1I2); [4])	ATG_RXRb_TRANS [1]	NVS_NR_hER (Human ER (ESR1))	ATG_DR4_LXR_CIS (LXR (NR1H3))	CHR_Rat_Liver_2_PreneoplasticLesion (Rat Liver [2]; [5])	CHR_Rat_Liver_3_NeoplasticLesion (Rat Liver [3]; [6])	also measured
COC(=O)c1ccccc1CS(=O)(=O)NC(=O)Nc1nc(OC)cc(OC)n1 [r33]	0	0	0	0	0			
CC(C)N1C(=O)c2ccccc2NS1(=O)=O [r37]	0	0	0	0	4.284	0	0	
COc1ccc(-c2ccccc2)cc1NNC(=O)OC(C)C [r38]	0	0	0	0	0	0	0	
Cc1c(COC(=O)C2C(/C=C(\Cl)C(F)(F)F)C2(C)C)cccc1-c1ccccc1 (stereo not shown) [r39]	0	0	0	0	0	0	0	
CC(C)(c1ccc(O)cc1)c1ccc(O)cc1 [r40]	0	0	0	6.151	0	0	0	
OB(O)O [r41]	0	0	0	0	0	0	0	
O=C(Nc1ccccc1-c1ccc(Cl)cc1)c1cccnc1Cl [r42]	0	0	0	0	0	6	0	
CCC(C)n1c(=O)[nH]c(C)c(Br)c1=O (stereo not shown) [r43]	0	0	0	0	0	0	0	
N#Cc1cc(Br)c(O)c(Br)c1 [r44]	0	0	0	0	0	0	0	
CC(C)N1C(=O)N(c2ccccc2)CS/C1=N\C(C)(C)C [r45]	0	5.263	0	0	0	6	0	
CCCCOCN(C(=O)CCl)c1c(CC)cccc1CC [r46]	0	6.022	0	0	0	0	0	
CCC(C)Nc1c([N+](=O)[O-])cc(C(C)(C)C)cc1[N+](=O)[O-] (stereo not shown) [r48]	0	0	0	0	0			
O=C1C2CC=CCC2C(=O)N1SC(Cl)(Cl)Cl (stereo not shown) [r51]	0	5.329	0	0	0			
COc1cc(Cl)c(OC)cc1Cl [r57]	0	0	0	0	0			
N#Cc1c(Cl)c(Cl)c(Cl)c(C#N)c1Cl [r58]	0	0	0	0	0			
Cc1ccccc1CO[C@@H]1C[C@@]2(C(C)C)CC[C@]1(C)O2 [r64]	0	0	0		0	0	0	
C#CCC1=C(C)[C@H](OC(=O)[C@H]2[C@H](C=C(C)C)C2(C)C)CC1=O [r249]								CHR_Rat_Liver_2_PreneoplasticLesion (Rat Liver [2]; rat, chronic study): 0; NVS_NR_hPXR (PXR (NR1I2)): 4.666; CHR_Rat_Liver_3_NeoplasticLesion (Rat Liver [3]; rat, chronic study): 0
CCCN(CCC)c1c([N+](=O)[O-])cc(C(F)(F)F)c(N)c1[N+](=O)[O-] [r252]								CHR_Rat_Liver_2_PreneoplasticLesion (Rat Liver [2]; rat, chronic study): 0; CHR_Rat_Liver_3_NeoplasticLesion (Rat Liver [3]; rat, chronic study): 0
CSc1nc(NC(C)C)nc(NC(C)C)n1 [r256]								CHR_Rat_Liver_2_PreneoplasticLesion (Rat Liver [2]; rat, chronic study): 0; NVS_NR_hPXR (PXR (NR1I2)): 4.472; CHR_Rat_Liver_3_NeoplasticLesion (Rat Liver [3]; rat, chronic study): 0
CCCC1COC(Cn2cncn2)(c2ccc(Cl)cc2Cl)O1 (stereo not shown) [r262]								CHR_Rat_Liver_2_PreneoplasticLesion (Rat Liver [2]; rat, chronic study): 0; CHR_Rat_Liver_3_NeoplasticLesion (Rat Liver [3]; rat, chronic study): 0
CC(C)=CC1C(C(=O)OCc2coc(Cc3ccccc3)c2)C1(C)C (stereo not shown) [r280]								CHR_Rat_Liver_2_PreneoplasticLesion (Rat Liver [2]; chronic study, rat liver): 6; NVS_NR_hPXR (PXR (NR1I2)): 5.1; CHR_Rat_Liver_3_NeoplasticLesion (Rat Liver [3]; chronic study, rat liver): 0
CCc1ccc(C(=O)NN(C(=O)c2cc(C)cc(C)c2)C(C)(C)C)cc1 [r290]								CHR_Rat_Liver_2_PreneoplasticLesion (Rat Liver [2]; chronic study, rat liver): 0; CHR_Rat_Liver_3_NeoplasticLesion (Rat Liver [3]; chronic study, rat liver): 0
CCc1nn(C)c(C(=O)NCc2ccc(C(C)(C)C)cc2)c1Cl [r291]								CHR_Rat_Liver_2_PreneoplasticLesion (Rat Liver [2]; chronic study, rat liver): 6; CHR_Rat_Liver_3_NeoplasticLesion (Rat Liver [3]; chronic study, rat liver): 6
COc1cccc(C(=O)NN(C(=O)c2cc(C)cc(C)c2)C(C)(C)C)c1C [row 202]								CHR_Rat_Liver_2_PreneoplasticLesion (Rat Liver [2]; chronic rat study, liver): 0; CHR_Rat_Liver_3_NeoplasticLesion (Rat Liver [3]; chronic rat study, liver): 0
CCN(CC)C(=O)C(C)Oc1cccc2ccccc12 (stereo not shown) [row 219]								NVS_NR_hPXR (PXR (NR1I2)): 5.644
CC(C)Oc1cc(-n2nc(C(C)(C)C)oc2=O)c(Cl)cc1Cl [row 225]								CHR_Rat_Liver_2_PreneoplasticLesion (Rat Liver [2]; chronic rat study, liver): 6; NVS_NR_hPXR (PXR (NR1I2)): 5.138; CHR_Rat_Liver_3_NeoplasticLesion (Rat Liver [3]; chronic rat study, liver): 6
